Experimental data: patent US20150011559A1, “ANTIMICROBIAL AGENTS” (RUTGERS, THE STATE UNIVERSITY OF NEW JERSEY, priority 2012, published 2015)
≈ marks a conversion by molar mass, not a printed value. Read-outs that look alike come from different tables or passages of the source.

What was measured:
[1] = system: methicillin-susceptible Staphylococcus aureus (MSSA); test: Antibacterial assay (Test C), broth microdilution MIC against MSSA; assay type: cell-based; details: for MIC: Staphylococcus aureus, MSSA, read-out: MSSA MIC data
Procedure: (§1) Test C. Antibacterial Assay.
(§2) Antibacterial activity can be determined as per Clinical and Laboratory Standards Institute (CLSI) guidelines using a broth microdilution assay in which log-phase bacteria are grown at 37° C. in appropriate medium containing two-fold serial dilutions of a compound to yield final concentrations ranging from 256 to 0.06 μg/mL. For determination of minimal inhibitory concentration (MIC) values, bacterial growth is monitored after 24 to 48 hours by measuring optical density at 600 nm.
(§3) Using a procedure similar to Test C, representative compounds of the invention were tested against methicillin-susceptible Staphylococcus aureus (MSSA) and methicillin-resistant Staphylococcus aureus (MRSA).

[2] = system: methicillin-resistant Staphylococcus aureus (MRSA); test: Antibacterial assay (Test C), broth microdilution MIC against MRSA; assay type: cell-based; details: for MIC: Staphylococcus aureus, MRSA, read-out: MRSA MIC data
Procedure: as §1, §2, §3

[3] = minimal inhibitory concentration, broth microdilution, growth completely inhibited
[4] = minimal inhibitory concentration, broth microdilution, growth completely inhibited, listed as 46
[5] = minimal inhibitory concentration, broth microdilution, growth completely inhibited, listed as 19
[6] = minimal inhibitory concentration, broth microdilution, growth completely inhibited, listed as 51
[7] = minimal inhibitory concentration, broth microdilution, growth completely inhibited, listed as 18

Row | Compound | MIC [1, 3] | MIC [2, 3] | other results
1 | CC(C)(C)c1ccc(-c2cc(CNC(=N)N)cc(CC(Br)Br)c2)cc1 [Code 58] | 32 µg/mL (≈ 68.5 µM) |  | 
2 | CC(C)(C)c1ccc(-c2cccc(/C=N/NC(=N)N)c2)cc1 [Code 12] | 2 µg/mL (≈ 6.79 µM) | 8 µg/mL (≈ 27.2 µM) | 
3 | CC(C)(C)c1ccc(-c2cc(Cn3ccnc3)cc(Cn3ccnc3)c2)cc1 [Code 60] | 4 µg/mL (≈ 10.8 µM) | 8 µg/mL (≈ 21.6 µM) | 
4 | CCC(C)NCc1cccc(-c2ccc(C(C)(C)C)cc2)c1 (centres unmarked) [Code 54] |  |  | MRSA MIC data [2, 4]: 32 µg/mL; MSSA MIC data [1, 4]: 16 µg/mL
5 | CC(C)(C)c1ccc(-c2cc(CNC(=N)N)cc(-c3cscn3)c2)cc1 [Code 63] | 2 µg/mL (≈ 5.49 µM) | 8 µg/mL (≈ 21.9 µM) | 
6 | CC(C)(C)c1csc(-c2ccc(CN=C(N)N)cc2)n1 [Code 25] | 4 µg/mL (≈ 13.9 µM) | 8 µg/mL (≈ 27.7 µM) | 
7 | CC(C)(C)c1csc(-c2cccc(CN=C(N)N)c2)n1 [Code 26] | 4 µg/mL (≈ 13.9 µM) | 16 µg/mL (≈ 55.5 µM) | 
8 | CCC(C)NCc1cccc(-c2ccc(C(C)(C)C)cc2)c1 (centres unmarked) [Code 46] |  | 16 µg/mL (≈ 54.2 µM) | MSSA MIC data ([1]; minimal inhibitory concentration, broth microdilution, growth completely inhibited, listed as 40): 4.0 µg/mL
9 | CC(C)(C)c1ccc(-c2ccc(CCN)cc2)cc1 [Code 19] | 4 µg/mL (≈ 15.8 µM) |  | MRSA MIC data ([2]; minimal inhibitory concentration, broth microdilution, growth completely inhibited, listed as 17): 4.0 µg/mL
10 | C[N+](C)(C)c1ccc(-c2ccc(-c3ccccc3)cc2)cc1.[I-] [Code 1] | 8 µg/mL | 64 µg/mL | 
11 | CC(C)(C)c1ccc(-c2ccccc2CCN)cc1 [Code 37] | 32 µg/mL (≈ 126 µM) |  | 
12 | N=C(N)N/N=C/c1cccc(-c2ccc(Br)cc2)c1 [Code 30] |  |  | MSSA MIC data ([1]; minimal inhibitory concentration, broth microdilution, growth completely inhibited, listed as 27): 32 µg/mL
13 | CC(C)(C)c1ccc(-c2cccc(OCCn3ccnc3)c2)cc1 [Code 15] | 4 µg/mL (≈ 12.5 µM) | 4 µg/mL (≈ 12.5 µM) | 
14 | CC(C)(C)c1ccc(-c2ccc(CCN)cc2)cc1 [Code 21] |  |  | MRSA MIC data [2, 5]: 16 µg/mL; MSSA MIC data [1, 5]: 8.0 µg/mL
15 | CC(C)(C)c1ccc(-c2cccc(Cn3ccnc3)c2)cc1 [Code 47] | 8 µg/mL (≈ 27.5 µM) | 16 µg/mL (≈ 55.1 µM) | 
16 | NC(N)=NCc1cccc(-c2ccc(-c3cscn3)cc2)c1 [Code 65] |  | 32 µg/mL (≈ 104 µM) | MSSA MIC data [1, 3]: 8.0 µg/mL; MSSA MIC data ([1]; minimal inhibitory concentration, broth microdilution, growth completely inhibited, listed as 55): 32 µg/mL
17 | Cc1cc(C)cc(-c2cccc(CCN)c2)c1 [Code 45] | 64 µg/mL (≈ 284 µM) |  | 
18 | CC(C)(C)c1ccc(-c2csc(CNC(=N)N)n2)cc1 [Code 10] | 4 µg/mL (≈ 13.9 µM) | 32 µg/mL (≈ 111 µM) | 
19 | COC(=O)c1ccc(-c2ccc(C(C)(C)C)cc2)cc1Cn1ccnc1 [Code 52, methyl 3-((1H-imidazol-1-yl)methyl)-4′-(tert-butyl)-[1,1′-biphenyl]-4-carboxylate] | 1 µg/mL (≈ 2.87 µM) | 2 µg/mL (≈ 5.74 µM) | 

Row | Compound | MIC [1, 3] | MIC [2, 3] | other results
20 | CC(C)(C)c1ccc(-c2ccc3sc(CNC(=N)N)nc3c2)cc1 [Code 6] | 4 µg/mL (≈ 11.8 µM) | 8 µg/mL (≈ 23.6 µM) | 
21 | COCCOCCOCCOCCOc1cc(CNC(=N)N)cc(-c2ccc(C(C)(C)C)cc2)c1 [Code 17] | 2 µg/mL (≈ 4.1 µM) | 4 µg/mL (≈ 8.2 µM) | 
22 | CCC(C)N(Cc1cccc(-c2ccc(C(C)(C)C)cc2)c1)C(=N)N (centres unmarked) [Code 57] | > 64 µg/mL |  | 
23 | C[N+](C)(C)c1cccc(-c2cccc(-c3cccc(-c4ccccc4)c3)c2)c1 [Code 36] | 1 µg/mL | 4 µg/mL | 
24 | NC(N)=NCc1cccc(-c2ccc(Br)cc2)c1 [Code 41] |  |  | MIC [2]: 8 µg/mL (≈ 26.3 µM); MIC [1]: 4 µg/mL (≈ 13.1 µM)
25 | CC(C)(C)c1ccc(-c2cc(Cn3ccnc3)cc([N+](=O)[O-])c2)cc1 [Code 58] | 8 µg/mL (≈ 23.9 µM) | 8 µg/mL (≈ 23.9 µM) | 
26 | CN(C)Cc1ccc(-c2ccc(C(C)(C)C)cc2)cc1CN=C(N)N [Code 23] | 4 µg/mL (≈ 11.8 µM) | 8 µg/mL (≈ 23.6 µM) | 
27 | CC(C)(C)c1ccc(-c2ccc(-c3cccc(CNC(=N)N)c3)cc2)cc1 [Code 43] | 1 µg/mL (≈ 2.8 µM) | 2 µg/mL (≈ 5.59 µM) | 
28 | CC(C)(C)c1cccc(-c2ccccc2CCN)c1 [Code 38] | 32 µg/mL (≈ 126 µM) |  | 
29 | CC(C)(C)c1ccc(-c2cc(CNC(=N)N)cc(CNC(=N)N)c2)cc1 [Code 59] | 16 µg/mL (≈ 45.4 µM) | 16 µg/mL (≈ 45.4 µM) | 
30 | CC(C)(C)c1ccc(-c2cc(Cn3ccnc3)cc(NS(C)(=O)=O)c2)cc1 [Code 60] |  |  | MRSA MIC data [2, 6]: >64 µg/mL; MSSA MIC data [1, 6]: 16.0 µg/mL
31 | CC(C)(C)c1ccc(-c2cc(CNC(=N)N)cc(-c3ccc(C(C)(C)C)cc3)c2)cc1 [Code 44] | 4 µg/mL (≈ 9.67 µM) | 32 µg/mL (≈ 77.4 µM) | 
32 | CC(C)(C)c1ccc(-c2ccc(C(=O)Nc3nccs3)c(Cn3ccnc3)c2)cc1 [Code 67] | 32 µg/mL (≈ 76.8 µM) |  | 
33 | CC(C)(C)c1ccc(-c2cccc(CN)c2)cc1 [Code 57] | 16 µg/mL (≈ 66.8 µM) | 16 µg/mL (≈ 66.8 µM) | 
34 | CC(C)(C)c1ccc(-c2cccc(CNC(=N)N)c2)cc1 [Code 4] |  | 1 µg/mL (≈ 3.55 µM) | MSSA MIC data ([1]; minimal inhibitory concentration, broth microdilution, growth completely inhibited, listed as 3): 1.0 µg/mL
35 | CC(=O)Nc1cc(Cn2ccnc2)cc(-c2ccc(C(C)(C)C)cc2)c1 [Code 63] | 16 µg/mL (≈ 46 µM) | > 64 µg/mL | 
36 | N=C(N)N/N=C/c1cccc(-c2ccc(Br)cc2)c1 [Code 35] |  | 4 µg/mL (≈ 12.6 µM) | MSSA MIC data ([1]; minimal inhibitory concentration, broth microdilution, growth completely inhibited, listed as 30): 4.0 µg/mL
37 | CC(C)(C)c1ccc(-c2ccc(CNC(=N)N)cc2)cc1 [Code 20] |  |  | MRSA MIC data [2, 7]: 4.0 µg/mL; MSSA MIC data [1, 7]: 2.0 µg/mL
38 | COc1cc(CN2CCN(C)CC2)cc(-c2ccc(C(C)(C)C)cc2)c1OC [Code 42] | 2 µg/mL (≈ 5.23 µM) | 4 µg/mL (≈ 10.5 µM) | 

Row | Compound | MIC [1, 3] | MIC [2, 3] | other results
39 | CC(C)(C)c1ccc(-c2ccc(CNC(=N)N)cc2)cc1 [Code 18] | 4 µg/mL (≈ 14.2 µM) |  | MRSA MIC data ([2]; minimal inhibitory concentration, broth microdilution, growth completely inhibited, listed as 16): 16 µg/mL
40 | CC(C)(C)c1ccc(-c2cccc(Cn3cncn3)c2)cc1 [Code 66] | 16 µg/mL (≈ 54.9 µM) | 16 µg/mL (≈ 54.9 µM) | MRSA MIC data [2, 3]: 32 µg/mL
41 | CC(C)(C)c1ccc(-c2cccc(CNNC(=N)N)c2)cc1 [Code 31] | 2 µg/mL (≈ 6.75 µM) | 4 µg/mL (≈ 13.5 µM) | 
42 | CC(C)(C)c1ccc(-c2cccc(CCN)c2)cc1 [Code 40] | 16 µg/mL (≈ 63.1 µM) | 8 µg/mL (≈ 31.6 µM) | 
43 | CC(C)(C)c1ccc(-c2cc(CC(Br)Br)cc(Cn3ccnc3)c2)cc1 [Code 61] | 2 µg/mL (≈ 4.2 µM) | 8 µg/mL (≈ 16.8 µM) | MSSA MIC data [1, 3]: 4.0 µg/mL
44 | CN(C)Cc1ccc(-c2ccc(C(C)(C)C)cc2)cc1 [Code 22] | 16 µg/mL (≈ 59.8 µM) | 32 µg/mL (≈ 120 µM) | 
45 | COc1cc(-c2ccc(C(C)(C)C)cc2)cc(Cn2ccnc2)c1OC [Code 16] | 2 µg/mL (≈ 5.71 µM) | 2 µg/mL (≈ 5.71 µM) | 
46 | CC(C)(C)c1ccc(-c2cccc(C(=O)NC(=N)N)c2)cc1 [Code 29] | 4 µg/mL (≈ 13.5 µM) | 8 µg/mL (≈ 27.1 µM) | 
47 | CC(C)(C)c1cccc(-c2cccc(CNC(=N)N)c2)c1 [Code 24] | 2 µg/mL (≈ 7.11 µM) | 8 µg/mL (≈ 28.4 µM) | 
48 | CC(C)(C)c1ccc(-c2ccnc(CN=C(N)N)c2)cc1 [Code 5] | 8 µg/mL (≈ 28.3 µM) | 16 µg/mL (≈ 56.7 µM) | 
49 | CC(NC(=N)N)c1cccc(-c2ccc(C(C)(C)C)cc2)c1 (centres unmarked) [Code 13] | 1 µg/mL (≈ 3.38 µM) | 2 µg/mL (≈ 6.77 µM) | 
50 | CC(C)(C)c1ccc(-c2cccc(CNC(=N)N)c2)cc1 [Code 3] |  |  | MSSA MIC data ([1]; minimal inhibitory concentration, broth microdilution, growth completely inhibited, listed as 2): >64.0 µg/mL
51 | NC(N)=NCc1cccc(-c2ccc(-c3cncs3)cc2)c1 [Code 64] |  | 32 µg/mL (≈ 104 µM) | MSSA MIC data [1, 3]: 4.0 µg/mL; MSSA MIC data ([1]; minimal inhibitory concentration, broth microdilution, growth completely inhibited, listed as 54): 16 µg/mL
52 | COc1cc(OC(F)(F)F)ccc1-c1cc(CN=C(N)N)cc(-c2ccc(C(C)(C)C)cc2)c1 [Code 53] | 1 µg/mL (≈ 2.12 µM) | 2 µg/mL (≈ 4.24 µM) | 
53 | COc1cc(-c2ccc(C(C)(C)C)cc2)cc(CNC(=N)N)c1OC [Code 14] | 2 µg/mL (≈ 5.86 µM) | 8 µg/mL (≈ 23.4 µM) | 
54 | CC(C)(C)c1ccc(-c2cc(N)cc(Cn3ccnc3)c2)cc1 [Code 59] | > 64 µg/mL |  | 
55 | O=C(Nc1nccs1)c1ccc(-c2cccc(Cn3ccnc3)c2)cc1 [Code 62] | 4 µg/mL (≈ 11.1 µM) | 32 µg/mL (≈ 88.8 µM) | 
56 | CC(C)(C)OC(=O)NC(=N)NCc1nc(-c2ccc(C(C)(C)C)cc2)cs1 [Code 9] | 8 µg/mL (≈ 20.6 µM) |  | 
57 | CC(C)(C)c1csc(-c2ccc(CN=C(N)N)cc2)n1 [Code 28] |  |  | MRSA MIC data ([2]; minimal inhibitory concentration, broth microdilution, growth completely inhibited, listed as 25): 8 µg/mL
